Bridges are numbered along the chain shown (N, C = ends). Where no end group is shown, it is not given here.
Legend:
rabbit ETA receptor = settings: cited from earlier work
human ETA receptor = settings: cited from earlier work
ETA receptor = target: T1, ETA receptor (Rattus norvegicus, UniProt P26684); experiment: In Vitro Vascular Smooth Muscle Activity, Rat Aorta (ET-1 contraction; Test B); assay type: cell-based; settings: read-out: pA2 (converted)
T1 construct: Rat aortae are cleaned of connective tissue and fat and cut into helical strips; from tissue; host or cells: rat aorta, helical strips, endothelium removed
T1 sequence (P26684 21-426): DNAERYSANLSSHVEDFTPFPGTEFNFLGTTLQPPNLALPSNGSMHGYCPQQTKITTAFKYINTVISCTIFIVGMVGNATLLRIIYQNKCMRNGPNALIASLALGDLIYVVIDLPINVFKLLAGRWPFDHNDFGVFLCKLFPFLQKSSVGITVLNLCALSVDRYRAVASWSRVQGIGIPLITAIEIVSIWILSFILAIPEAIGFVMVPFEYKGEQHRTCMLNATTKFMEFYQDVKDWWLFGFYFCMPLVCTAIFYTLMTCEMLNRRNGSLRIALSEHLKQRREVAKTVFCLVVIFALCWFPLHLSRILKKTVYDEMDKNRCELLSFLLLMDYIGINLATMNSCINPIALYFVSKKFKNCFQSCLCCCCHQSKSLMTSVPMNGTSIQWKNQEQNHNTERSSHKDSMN
Source text: B. In Vitro Vascular Smooth Muscle Activity
Rat aortae are cleaned of connective tissue and fat and cut into helical strips approx 4 mm in width. The endothelium is removed by dragging the luminal surface of the tissue gently across filter paper moistened with Krebs solution of composition (mM) NaCl 130, KCl 5.6, NaHCO3 25, Glucose 11.1, NaH2 PO4 0.6, CaCl2 2.16, MgCl2 0.5, gassed with 95% O2 /5% CO2. The strips are mounted in isolated organ baths in Krebs solution under a resting tension of 1 gram. Organ bath solutions are maintained at 37° C. and continuously aerated with 95% O2 /5% CO2. […] After equilibration in the organ bath for 1 hour, tissues are contracted by the addition of KCl to a final concentration of 60 mM. The KCl is removed by replacing the Krebs solution, with two further washes with Krebs solution. To determine the potency of an ETA receptor antagonist, two tissues are cumulatively dosed with ET-1 (0.1 nM-1 μM); other tissues are dosed with ET-1 (0.1 nM-1 μM) in duplicate, beginning 30 minutes after the inclusion in the organ bath medium of the test compound. Sufficient tissues are used per experiment to generate dose-response curves to ET-1 in the absence and the presence of at least 3 concentrations of antagonist. Data are expressed as the mean±s.e.m. Dissociation constants (kb) of competitive antagonists are calculated by the method of Arunlakshana and Schild.

neointimal formation = settings: cited from earlier work

Row | Molecule | IC50 (rabbit ETA receptor) [µM] | Kb (ETA receptor) [nM] | further results
1 | COc1cccc(Sc2c(C(=O)O)sc3ccccc23)c1 [3-[(3-methoxyphenyl)sulfanyl]benzo[b]thiophene-2-carboxylic acid] | 5.9 |  | 
2 | CC(C)Oc1c(C(=O)O)sc2ccc(OCc3ccccc3)cc12 [5-benzyloxy-3-isopropoxybenzo[b]thiophene-2-carboxylic acid] | 6 |  | IC50 (human ETA receptor): 8.8 µM
3 | O=C(O)c1sc2cc(OCc3cccnc3)ccc2c1Sc1ccccc1O [Example 56] |  | 14.8 | 
4 | O=C(O)c1sc2cc(Cn3ccnc3)ccc2c1Sc1ccccc1O [Example 71] |  | 229 | 
5 | CCCOc1ccc2c(c1)[C@@H](c1ccc(OC)cc1OCC(=O)O)[C@H](C(=O)O)[C@H]2c1ccc2c(c1)OCO2 [SB-209670] |  |  | reduction in neointimal formation (neointimal formation; relative to control animals): 50%
6 | ET-1: isoform of endothelin, 21-amino acid peptide, potent vasoconstrictor (CSCSSLMDKECVYFCHLDIIW; disulfide 1-15, 3-11; ends not checked; UniProt P05305 53-73, looked up) |  |  | effect on neointimal formation (neointimal formation; in rats after balloon angioplasty): potentiate neointimal formation

Reference: patent publication US6040309A, “Benzothiophene derivatives useful in therapy” (Pfizer, Inc., priority 1997, dated 2000)
